Test results reported in patent US7071212B2, “N-(4-carbamimidoyl-phenyl)-glycine derivatives” (Hoffmann-La Roche Inc., priority 1998, dated 2006).

What was measured:
[1] = molecular target: T1, factor VIIa/tissue factor complex (Homo sapiens, UniProt P08709); assay: inhibition of the amidolytic activity of factor VIIa/tissue factor complex (chromogenic peptide substrate); format: biochemical; conditions: 26 nM tissue factor, 9 nM soluble factor VIIa, 8 mM calcium chloride, substrate Chromozym-tPA, pH 7.5, room temperature
T1 construct: 9 nM of soluble factor VIIa
T1 sequence (P08709 213-466 limits assumed): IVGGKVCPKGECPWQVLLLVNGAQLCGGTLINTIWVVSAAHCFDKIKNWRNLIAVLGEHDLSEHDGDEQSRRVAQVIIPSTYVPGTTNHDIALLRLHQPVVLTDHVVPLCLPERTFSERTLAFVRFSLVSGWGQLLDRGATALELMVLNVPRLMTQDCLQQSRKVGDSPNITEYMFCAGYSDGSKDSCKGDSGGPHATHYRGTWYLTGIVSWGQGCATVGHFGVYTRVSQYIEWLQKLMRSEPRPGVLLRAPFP
T1 sequence (P08709 61-212 partner limits assumed): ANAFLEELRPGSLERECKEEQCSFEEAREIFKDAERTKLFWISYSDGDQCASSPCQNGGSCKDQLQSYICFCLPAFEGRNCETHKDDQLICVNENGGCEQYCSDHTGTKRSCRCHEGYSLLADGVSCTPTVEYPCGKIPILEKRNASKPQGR
T1 sequence (P13726 33-295 partner): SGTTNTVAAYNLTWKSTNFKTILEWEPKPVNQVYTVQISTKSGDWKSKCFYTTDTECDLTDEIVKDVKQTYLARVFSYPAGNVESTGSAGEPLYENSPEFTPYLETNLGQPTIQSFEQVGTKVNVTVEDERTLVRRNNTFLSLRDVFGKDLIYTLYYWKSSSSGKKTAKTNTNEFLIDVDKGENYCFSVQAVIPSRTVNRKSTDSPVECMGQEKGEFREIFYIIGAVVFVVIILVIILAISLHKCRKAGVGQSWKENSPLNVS
Protocol: The measurements were carried out on microtitre plates at room temperature. To this end, 100 μl of a solution of 26 nM of tissue factor, 9 nM of soluble factor VIIa and 8 mM of calcium chloride were added to 25 μl of a solution of the inhibitor in a buffer [pH 7.5, 100 mM, comprising 0.14M NaCl, 0.1M N-(2-hydroxyethyl)piperazine-N′-(2-ethanesulphonic acid) (HEPES), 0.5 mg/l of fatty-acid-free BSA (bovine serum albumin) and 0.05% NaN3] in each well of the plate. After an incubation time of 15 minutes the reaction was started by the addition of 50 μl of chromogenic substrate Chromozym-tPA (3.5 mM, MeSO2-D-Phe-Gly-Arg-paranitroanilide) and the hydrolysis of the substrate was followed spectrophotometrically on a kinetic microtitre plate reader over 10 minutes. Using the plot of the inhibition curves, the Ki values were determined according to the method described in Biochem. J. 55, 1953, 170–171. The results will be evident from the following Table (Ki in μM/l): […]

Structure (SMILES)	Ki [1]	melting point
COc1cc(OC)c(OCC(=O)O)c(C(Nc2ccc(C(=N)N)cc2)C(=O)O)c1 (racemic) [Example 15, (RS)-(4-carbamimidoyl-phenylamino)-(2-carboxymethoxy-3,5-dimethoxy-phenyl)-acetic acid]	84 nM	–
COc1cc(OCC(=O)O)c(C(Nc2ccc(C(=N)N)cc2)C(=O)O)cc1OC (racemic) [Example 17, (RS)-(4-carbamimidoyl-phenylamino)-(2-carboxymethoxy-4,5-dimethoxy-phenyl)-acetic acid]	38.5 nM	–
N=C(N)c1ccc(NC(C(=O)O)c2cccc(OCc3ccccc3)c2)cc1 (racemic) [Example 39.4, (RS)-(3-benzyloxy-phenyl)-(4-carbamimidoyl-phenylamino)-acetic acid]	–	306 °C
N=C(N)c1ccc(NC(C(=O)O)c2ccccc2OCC(=O)O)cc1 (racemic) [Example 40.3, (RS)-(4-carbamimidoyl-phenylamino)-(2-carboxymethoxy-phenyl)-acetic acid]	–	223 °C
COc1ccc(OC)c(C(Nc2ccc(C(=N)N)cc2)C(=O)O)c1 (racemic) [Example 41.4, (RS)-(4-carbamimidoyl-phenylamino)-(2,5-dimethoxy-phenyl)-acetic acid]	–	310 °C
COc1ccc(OCC(=O)O)c(C(Nc2ccc(C(=N)N)cc2)C(=O)O)c1 (racemic) [Example 43.4, (RS)-(4-carbamimidoyl-phenylamino)-(2-carboxymethoxy-5-methoxy-phenyl)-acetic acid]	–	213 °C
CCOc1ccc(OCCCCC(=O)O)c(C(Nc2ccc(C(=N)N)cc2)C(=O)O)c1 (racemic) [Example 45.4, (RS)-5-{2-[(4-carbamimidoyl-phenylamino)-carboxy-methyl]-4-ethoxy-phenoxy}-pentanoic acid]	–	260 °C
CCOc1ccc(OCCOC)c(C(Nc2ccc(C(=N)N)cc2)C(=O)O)c1 (racemic) [Example 46.4, (RS)-(4-carbamimidoyl-phenylamino)-[5-ethoxy-2-(2-methoxy-ethoxy)-phenyl]-acetic acid]	–	275 °C
CCOc1ccc(OCC(N)=O)c(C(Nc2ccc(C(=N)N)cc2)C(=O)O)c1 (racemic) [Example 48.5, (RS)-(4-carbamimidoyl-phenylamino)-(2-carbamoylmethoxy-5-ethoxy-phenyl)-acetic acid]	–	266 °C
[H]/N=C(\NO)c1ccc(NC(C(=O)OC)c2cc(OC)c(OC)cc2OCc2cccc(C(=O)OC)c2)cc1 (racemic) [Example 52.3, methyl (Z)-(RS)-3-(2-{[4-(N-hydroxycarbamimidoyl)-phenylamino]-methoxycarbonyl-methyl}-4,5-dimethoxy-phenoxymethyl)-benzoate]	–	173 °C
CCCc1cc(C)cc(C(Nc2ccc(C(=N)N)cc2)C(=O)O)c1OCCO (racemic) [Example 56.5, (RS)-(4-carbamimidoyl-phenylamino)-[2-(2-hydroxy-ethoxy)-5-methyl-3-propyl-phenyl]-acetic acid]	–	240 °C
C=CCc1cc(C)cc(C(Nc2ccc(C(=N)N)cc2)C(=O)O)c1OCCO (racemic) [Example 57.4, (RS)-[3-allyl-2-(2-hydroxy-ethoxy)-5-methyl-phenyl]-(4-carbamimidoyl-phenylamino)-acetic acid]	–	228 °C
CCCc1cc(C)c(OCCO)c(C(Nc2ccc(C(=N)N)cc2)C(=O)O)c1 (racemic) [Example 58.5, (RS)-(4-carbamimidoyl-phenylamino)-[2-(2-hydroxy-ethoxy)-3-methyl-5-propyl-phenyl]-acetic acid]	–	230 °C
